Measured values as given in paper PMC12498416, “Design of Tau Aggregation Inhibitors Using Iterative Machine Learning and a Polymorph-Specific Brain-Seeded Fibril Amplification Assay” (Journal of the American Chemical Society, 2025).

What was measured:
[1] = target: T1, K12 tau (first-generation AD-brain-seeded K12 fibrils) (Homo sapiens, UniProt P10636, C639A); assay: ThT seeded aggregation kinetics ([…]/t1/[…]); type: biochemical; details: read-out: KIC50; 5 μM K12 monomer seeded with 50 nM first-generation AD-derived K12 seeds; 250 mM Na3citrate, 10 mM HEPES pH 7.4; 1% DMSO; quiescent; inhibition of fibril formation
T1 construct: gene MAPT; 3R fragment; E. coli; amyloid fibrils seeded with Alzheimer's disease brain homogenate, heparin-free

[2] = target: T1, K12 tau (first-generation AD-brain-seeded K12 fibrils); assay: fluorescence polarization with K12 fibrils; details: 10 μM compound; AD-seeded K12 fibrils (monomer equivalents); 250 mM Na3citrate, 10 mM HEPES pH 7.4; 1% DMSO; room temperature; one-step binding fit

T1 sequence (P10636 561-717 C639A): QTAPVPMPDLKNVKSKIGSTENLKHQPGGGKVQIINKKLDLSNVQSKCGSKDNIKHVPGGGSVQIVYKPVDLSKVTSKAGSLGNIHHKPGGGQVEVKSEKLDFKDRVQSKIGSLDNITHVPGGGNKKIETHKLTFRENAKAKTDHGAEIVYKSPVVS

Compound	IC50 [1] [nM]	Kd [2] [nM]
Cc1noc(C2CCN(C(=O)CNC(=O)c3ccccc3)C2)n1 (stereo not shown) [I1.21]	2600 ± 500	1580 ± 150
Cc1noc(C2CCN(C(=O)CCCc3ccccc3)CC2)n1 [I1.51]	7400 ± 5000	740 ± 280
